The record followed here is patent US7470794B2, “Preparation and use of ortho-sulfonamido aryl hydroxamic acids as matrix metalloproteinase inhibitors” (Wyeth, priority 2000, dated 2008).

The target in one data set is MMP-13 (Homo sapiens, UniProt P45452). Description: MMP-13 inhibition (thiopeptide or fluorescent peptide substrate assay). The data set is classed as biochemical. Here is the method:
(§1) These assays are based on the cleavage of a thiopeptide substrates such as Ac-Pro-Leu-Gly(2-mercapto-4-methyl-pentanoyl)-Leu-Gly-OEt by the matrix metalloproteinases MMP-1, MMP-13 (collagenases) or MMP-9 (gelatinase), which results in the release of a substrate product that reacts colorimetrically with DTNB (5,5′-dithiobis(2-nitro-benzoic acid)). The enzyme activity is measured by the rate of the color increase. The thiopeptide substrate is made up fresh as a 20 mM stock in 100% DMSO and the DTNB is dissolved in 100% DMSO as a 100 mM stock and stored in the dark at room temperature. Both the substrate and DTNB are diluted together to 1 mM with substrate buffer (50 mM HEPES pH 7.5, 5 mM CaCl2) before use. The stock of enzyme is diluted with assay buffer (50 mM HEPES, pH 7.5, 5 mM CaCl2, 0.02% Brij) to the desired final concentration. The assay buffer, enzyme, vehicle or inhibitor, and DTNB/substrate are added in this order to a 96 well plate (total reaction volume of 200 μl) and the increase in color is monitored spectrophotometrically for 5 minutes at 405 nm on a plate reader and the increase in color over time is plotted as a linear line.
(§2) Alternatively, a fluorescent peptide substrate is used. In this assay, the peptide substrate contains a fluorescent group and a quenching group. Upon cleavage of the substrate by an MMP, the fluorescence that is generated is quantitated on the fluorescence plate reader. The assay is run in HCBC assay buffer (50 mM HEPES, pH 7.0, 5 mM Ca^+2, 0.02% Brij, 0.5% Cysteine), with human recombinant MMP-1, MMP-9, or MMP-13. The substrate is dissolved in methanol and stored frozen in 1 mM aliquots. For the assay, substrate and enzymes are diluted in HCBC buffer to the desired concentrations. Compounds are added to the 96 well plate containing enzyme and the reaction is started by the addition of substrate. The reaction is read (excitation 340 nm, emission 444 nm) for 10 min. and the increase in fluorescence over time is plotted as a linear line.
(§3) For either the thiopeptide or fluorescent peptide assays, the slope of the line is calculated and represents the reaction rate. The linearity of the reaction rate is confirmed (r^2>0.85). The mean (x±sem) of the control rate is calculated and compared for statistical significance (p<0.05) with drug-treated rates using Dunnett's multiple comparison test. Dose-response relationships can be generated using multiple doses of drug and IC50 values with 95% CI are estimated using linear regression.

In data set [1] the target is T1, tumor necrosis factor-alpa converting enzyme (TACE; Immunex) (Homo sapiens, UniProt P78536).
T1 construct: purchased Immunex
Put plainly: TACE inhibition (fluorescent peptidyl substrate assay). In kind it is biochemical. Particulars: 1 μM test compound. As to the method:
Using 96-well black microtiter plates, each well receives a solution composed of 10 μL tumor necrosis factor-alpa converting enzyme (TACE; Immunex, final concentration 1 μg/mL), 70 μL Tris buffer, pH 7.4 containing 10% glycerol (final concentration 10 mM), and 10 μL of test compound solution in DMSO (final concentration 1 μM, DMSO concentration <1%) and incubated for 10 minutes at room temperature. The reaction is initiated by addition of a fluorescent peptidyl substrate (final concentration 100 μM) to each well and then shaking on a shaker for 5 sec.
The reaction is read (excitation 340 nm, emission 420 nm) for 10 min. and the increase in fluorescence over time is plotted as a linear line. The slope of the line is calculated and represents the reaction rate.
The linearity of the reaction rate is confirmed (r^2>0.85). The mean (x±sem) of the control rate is calculated and compared for statistical significance (p<0.05) with drug-treated rates using Dunnett's multiple comparison test. Dose-response relationships can be generate using multiple doses of drug and IC50 values with 95% CI are estimated using linear regression.

A further data set deals with T2, MMP-1 (Homo sapiens, UniProt P03956).
T2 sequence (P03956 100-469): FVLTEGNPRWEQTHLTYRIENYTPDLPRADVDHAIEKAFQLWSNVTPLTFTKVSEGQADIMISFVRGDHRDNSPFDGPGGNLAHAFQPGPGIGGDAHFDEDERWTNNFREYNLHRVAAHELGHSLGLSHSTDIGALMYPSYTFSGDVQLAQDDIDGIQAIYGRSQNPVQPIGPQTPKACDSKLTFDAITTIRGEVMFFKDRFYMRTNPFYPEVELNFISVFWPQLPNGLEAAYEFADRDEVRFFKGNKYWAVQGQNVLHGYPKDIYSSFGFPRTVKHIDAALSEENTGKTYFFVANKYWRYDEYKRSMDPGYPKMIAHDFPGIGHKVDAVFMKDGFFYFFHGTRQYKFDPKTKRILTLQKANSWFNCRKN
Put plainly: MMP-1 inhibition (thiopeptide or fluorescent peptide substrate assay). The data set is classed as biochemical. As to the method:
as §1, §2, §3

The target in the next data set is MMP-9 (Homo sapiens, UniProt P14780). Put plainly: MMP-9 inhibition (thiopeptide or fluorescent peptide substrate assay). The data set is classed as biochemical. As to the method:
as §1, §2, §3

A word on the IC50: it is the midpoint of a concentration-inhibition curve. Higher therefore signals lower potency. A word on the inhibition: it is the drop in the measured response relative to a control, in per cent. The melting point is the temperature of the solid-liquid transition.

Read-outs that look alike come from different tables or passages of the source. Some results are limits rather than exact numbers.

T1 sequence (P78536 215-824): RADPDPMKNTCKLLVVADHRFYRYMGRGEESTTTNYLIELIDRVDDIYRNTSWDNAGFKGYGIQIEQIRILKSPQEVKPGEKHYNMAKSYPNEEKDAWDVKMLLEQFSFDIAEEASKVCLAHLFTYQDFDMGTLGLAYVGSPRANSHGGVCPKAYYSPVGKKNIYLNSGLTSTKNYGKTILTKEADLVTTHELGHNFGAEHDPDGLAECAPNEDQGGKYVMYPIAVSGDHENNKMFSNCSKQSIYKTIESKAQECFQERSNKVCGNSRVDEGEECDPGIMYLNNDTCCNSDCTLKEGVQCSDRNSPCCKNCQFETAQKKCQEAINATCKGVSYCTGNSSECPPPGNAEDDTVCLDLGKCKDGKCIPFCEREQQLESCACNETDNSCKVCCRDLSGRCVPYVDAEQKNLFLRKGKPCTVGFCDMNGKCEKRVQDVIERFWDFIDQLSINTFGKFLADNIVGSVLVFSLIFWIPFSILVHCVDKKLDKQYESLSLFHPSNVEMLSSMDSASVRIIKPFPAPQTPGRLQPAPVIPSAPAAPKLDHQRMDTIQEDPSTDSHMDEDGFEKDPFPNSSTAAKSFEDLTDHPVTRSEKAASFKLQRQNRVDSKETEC
Sequence of MMP-9 (P14780 94-707): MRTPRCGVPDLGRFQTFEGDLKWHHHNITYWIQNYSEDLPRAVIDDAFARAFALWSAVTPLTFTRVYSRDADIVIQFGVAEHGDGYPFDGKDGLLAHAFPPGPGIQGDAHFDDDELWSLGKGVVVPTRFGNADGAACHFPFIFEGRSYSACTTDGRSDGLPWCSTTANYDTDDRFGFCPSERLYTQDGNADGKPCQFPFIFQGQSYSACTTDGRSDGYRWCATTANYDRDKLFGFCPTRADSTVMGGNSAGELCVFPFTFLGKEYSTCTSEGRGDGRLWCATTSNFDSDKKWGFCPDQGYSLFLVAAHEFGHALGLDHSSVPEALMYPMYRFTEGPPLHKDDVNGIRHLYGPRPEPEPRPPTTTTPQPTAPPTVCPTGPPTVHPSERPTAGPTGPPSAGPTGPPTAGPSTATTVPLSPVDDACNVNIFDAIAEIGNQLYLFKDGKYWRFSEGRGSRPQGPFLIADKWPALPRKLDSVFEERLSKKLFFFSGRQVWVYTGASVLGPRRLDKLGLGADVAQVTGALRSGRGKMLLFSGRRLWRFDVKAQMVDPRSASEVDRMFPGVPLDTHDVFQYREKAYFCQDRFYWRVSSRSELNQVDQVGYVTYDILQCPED

`Cc1cccc(C(=O)NO)c1N(C)S(=O)(=O)c1ccc(OCCNC(=O)c2ccc3ccccc3n2)cc1` [Example 4, Quinoline-2-carboxylic acid(2-{4-[(2-hydroxycarbamoyl-6-methyl-phenyl)-methyl-sulfamoyl]-phenoxy}-ethyl)-amide] registered a melting point of 114 to 121 °C. The same compound returned an IC50 at MMP-13 of 73 nM. The same compound displayed an inhibition at 1 µM in data set [1] of 19.9%. Also, on MMP-1, 4.24 µM corresponded to half-maximal inhibition (IC50). This compound displayed an IC50 against MMP-9 of 337 nM.
In the same order, the values of `Cc1cccc(C(=O)NO)c1N(C)S(=O)(=O)c1ccc(OCCCNC(=O)c2cc3ccccc3o2)cc1` [Example 6, Benzofuran-2-carboxylic acid(3-{4-[(2-hydroxycarbamoyl-6-methyl-phenyl)-methyl-sulfamoyl]-phenoxy}-propyl)-amide] are 148 to 150 °C, 4.9 nM, 21.3%, 5.45 µM and 510 nM.
In the same order, the values of `Cc1cccc(C(=O)NO)c1N(C)S(=O)(=O)c1ccc(OCCCCNC(=O)c2cc3ccccc3o2)cc1` [Example 8, Benzofuran-2-carboxylic acid(4-{4-[(2-hydroxycarbamoyl-6-methyl-phenyl)-methyl-sulfamoyl]-phenoxy}-butyl)-amide] are 131 to 134 °C, 467 nM, 43.6%, 5.12 µM and 84 nM.
The matching figures for `Cc1cccc(C(=O)NO)c1N(C)S(=O)(=O)c1ccc(OCCCNC(=O)c2cc3ccccc3[nH]2)cc1` [Example 10, 1H-Indole-2-carboxylic acid(3-{4-[(2-hydroxycarbamoyl-6-methyl-phenyl)-methyl-sulfamoyl]-phenoxy}-propyl)-amide]: 144 to 146 °C, 178 nM, 35.7%, 5.64 µM and 305 nM.
`Cc1cccc(C(=O)NO)c1N(C)S(=O)(=O)c1ccc(OCCNC(=O)c2cc3ccccc3s2)cc1` [Example 12, Benzo[b]thiophene-2-carboxylic acid(2-{4-[(2-hydroxycarbamoyl-6-methyl-phenyl)-methyl-sulfamoyl]-phenoxy}-ethyl)-amide] came in with a melting point of 169 to 171 °C. This compound had an IC50 at MMP-13 of 595 nM. Besides, 1 µM produced 15.2% inhibition in data set [1]. For the same compound, the IC50 on MMP-1 (cells printed in μM) is over 10 µM. For the same compound, on MMP-9, the IC50 was 914 nM.
Consider `Cc1cccc(C(=O)NO)c1N(C)S(=O)(=O)c1ccc(OCCCNC(=O)c2ccc3c(c2)OCO3)cc1` [Example 14, N-{3-[4-({2-[(hydroxyamino)carbonyl]-6, N-dimethylanilino}sulfonyl)phenoxy]propyl}-1,3-benzodioxole-5-carboxamide], for which the melting point lay in the range of 102 to 112 °C. The compound further registered an IC50 against MMP-13 of 110 nM. Besides, testing at 1 µM in data set [1] gave an inhibition of 42.1%. This compound also had an IC50 at MMP-1 of 1.48 µM. The compound also had an IC50 against MMP-9 of 63.6 nM.
Regarding `Cc1cccc(C(=O)NO)c1N(C)S(=O)(=O)c1ccc(OCCCNC(=O)c2cc3ccccc3s2)cc1` [Example 27, N-{3-[4-({2-[(Hydroxyamino)carbonyl]-6-dimethylanilino}-sulfonyl)phenoxy]propyl}-1-benzothiophene-2-carboxamide], the melting point is 100 to 105 °C. Besides, the midpoint of inhibition at MMP-13, the IC50, lay at 43 nM. The inhibition at 1 µM in data set [1] is 22%. Also, the IC50 against MMP-1 (cells printed in μM) was found to be 30 µM. Moreover, the IC50 on MMP-9 was 1390 nM.
In turn, `Cc1cc(C)c(N(Cc2ccccc2)S(=O)(=O)c2ccc(OCCNC(=O)c3cc4ccccc4o3)cc2)c(C(=O)NO)c1` [Example 31, Benzofuran-2-carboxylic acid(2-{4-[benzyl-(2-hydroxycarbamoyl-4,6-dimethyl-phenyl)-sulfamoyl]-phenoxy}-ethyl)-amide] displayed an IC50 on MMP-13 of 17.1 nM. Further, at 1 µM the inhibition in data set [1] was 18.9%.
As for “N-{4-[4-({2-[(hydroxyamino)carbonyl]-6, N-dimethylanilino}sulfonyl)phenoxy]butyl}-1,3-benzodioxole-5-carboxamide [Example 16]”, the 50% inhibitory concentration (IC50) against MMP-13 is 83.5 nM; at MMP-1 it was 0.999 µM; at MMP-9, 55.7 nM. Further, the “TACE % inhibition @ 1 μM” value in data set [1] is 27.4%.
